Consider one molecule from patent US7189701B1, “Tetrapeptide stimulating functional activity of neurons pharmacological agent based thereon and method of use thereof” (Sankt-Petersburgskaya Obschestvennaya Organizatsiya …, priority 1999, dated 2007).

Assay [1] has as its system rats with severe craniocerebral compression. Put plainly: Acute severe craniocerebral injury model (CRAA learning, rotating pivot). In kind it is in vivo. As to the method: Effect of L-Ala-L-Glu-L-Asp-L-Pro tetrapeptide on repair processes in the brain was assessed on the model of acute severe craniocerebral injury. Dynamics of the CNS functional restoration was defined by the tests on the coordination of movements and muscular tonus of the animals as well as on their abilities for learning and reproduction of conditioned reflex skills.
Severe craniocerebral compression in the rats was caused by a falling lead weight. In 1, 12, 48 and 96 hours the experimental animals were intramuscularly injected with L-Ala-L-Glu-L-Asp-L-Pro tetrapeptide. Animals in the 2nd group received Cerebrolysin.
Abilities for learning and skill reproduction were estimated by the test on the conditioned reflex of active avoidance (CRAA). To estimate the muscular tonus and coordination of movements the rats were rotated on a pivot at an increasing speed. Simultaneously, the retention time was measured.

The test system of another assay is rats. Put plainly: Serotonin metabolism in the brain, model of electrically induced pain stress. Type of assay: in vivo. As to the method:
In an hour the content of serotonin and its metabolite, 5-oxyindoleacetic acid, was measured in the parietal and posterior frontal regions of the brain.
Compensatory in character, the stimulation of serotonin metabolism diminishes the emotional perception of a pain impact, Natural “drawback” of the said mechanism consists in a quick transition to the state of decompensation. In control (untreated stress) the level of serotonin lowered, while that of 5-oxyindoleacetic acid rose (metabolic depletion phase).

The test system of assay [2] is mice subject to ECS-induced amnestic impact. The experiment in a line: CRPA in mice subject to ECS-induced amnestic impact. Type of assay: in vivo. To be noted: testing in 24 hours after the training. As to the method: Nootropic activity of L-Ala-L-Glu-L-Asp-L-Pro tetrapeptide was studied with the application of the conditioned reflex of passive avoidance (CRPA) in the intact animals and under the conditions of amnestic impacts (electroconvulsive treatment and ethanol intoxication).
The experiments were carried out on male mice weighing 20 to 24 g. For each animal the period of stay in dark and lighted chamber departments was registered during 2 min. before the training. […] The animals were trained by means of applying an electric pain stimulus in the preferred dark department, which lasted until the animal left this department. L-Ala-L-Glu-L-Asp-L-Pro tetrapeptide was introduced intraperitoneally 60 min. before the training. Testing was performed in 2 and 24 hours after the training. The period the animal stayed in the dark and lighted chamber departments and the number of animals not entering the dark department (“educated” animals) were recorded.
Electroconvulsive shock (ECS) was induced in the mice no later than in 10 sec. after the training via corneal electrodes by an electric impulse of 25 mA, which lasted for 0.5 sec. L-Ala-L-Glu-L-Asp-L-Pro tetrapeptide was introduced intraperitoneally 60 min. before the training. Testing was performed in 24 hours after the training.

The subject of another assay is cerebral cortex explants. Put plainly: Development of cerebral cortex explants (area index). Type of assay: cell-based, chicken embryos. As to the method: The experiments were carried out on 73 cerebral cortex fragments of 10–11 day old chicken embryos. Culture medium for the explants comprised 35% Eagle's solution, 25% foetal calf serum, 35% Henks' solution, 5% chicken embryonic extract. The medium was also added glucose (0.6%), insulin (0.5 IU/ml), penicillin (100 IU/ml), glutamine (2 mM). The cerebral cortex fragments were placed in the said medium and cultivated in Petri dishes in a thermostat at 36.7° C. for 2 days. L-Ala-L-Glu-L-Asp-L-Pro (SEQ ID NO:1) tetrapeptide and Cerebrolysin in concentrations 0.5, 1, 2, 20, 50, 100, 200, 400, 800, 1000 ng/ml were added into the experimental medium. Area index (AI) served as a criterion of biological activity and reflected the ratio of the entire explant area including the growth zone to the initial area of the cortex fragment. Student's t-criterion was applied to assess the significance of differences between the compared mean AI values. AI values were expressed percent. The control AI value was taken for 100%.
The growth zone of the control cortex explants included short axons, neuroglia cells migrating to the periphery and fibroblast-like cells.
Following series of experiments were performed to study the direct effect of the drugs on the cerebral cortex fragments.
Cerebrolysin in various concentrations was added to the culture medium of the cerebral cortex explants of the chicken embryos. […]

Assay [3] has as its system patients with remote complications of craniocerebral injury. Put plainly: Clinical trial in patients with remote complications of craniocerebral injury (proof test, EEG α-index, subjective indices). Type of assay: in vivo, human. The protocol: The trial was conducted on 35 patients with remote complications of craniocerebral injury. They were divided into 3 groups: a control one (10 patients—standard treatment), a group under study (15 patients—standard treatment+1 μg of L-Ala-L-Glu-L-Asp-L-Pro tetrapeptide intramuscularly, daily for 10 days) and a comparison group (10 patients—standard treatment+Cerebrolysin). Remoteness of the suffered craniocerebral injury in the patients constituted 1 to 10 years. Decompensation of the posttraumatic process occurred in all the patients and was manifested in liquorodynamic disorder, neurocirculatory dystonia, cerebrofocal and psychopathologic syndromes.
Effect of the treatment with L-Ala-L-Glu-L-Asp-L-Pro tetrapeptide on the patients' attention was assessed by the proof test before and after the treatment. Significant increase in the number of reviewed symbols and decreased number of mistakes was noted, which indicated enhanced attention and raised stability of attention promoted by the tetrapeptide action (Table 5).
To assess the influence of L-Ala-L-Glu-L-Asp-L-Pro tetrapeptide on the cerebral bioelectric activity, a visual EEG (electroencephalography) test was carried out with its distribution on types and calculation of α-index before and after the treatment. EEG test was selectively performed in the patients from different groups showing most notable signs of disorder.
Before the treatment patients pathologic (III, IV and V) types of EEG prevailed in all the groups. The III-rd EEG type was characterised by the presence of so-called “non-dominant” curve, alongside with a low amplitude rate (no higher than 30–35 μV), irregular or even absent α-activity. The IV-th EEG type was marked by an extremely emphasised rhythm regularity and blurred zonal differences. The V-th EEG type was represented with an irregular slow activity (amplitude exceeding 35 μV), sharp waves and paroxysmal discharges.

Setting [4] is: 5 μg/kg, post-stress introduction, measured in an hour.
The mark [5] stands for this setting: after treatment, added to conventional treatment.

Residues, ends and D or L forms follow the SMILES beside them.

Regarding `C[C@H](N)C(=O)N[C@@H](CCC(=O)O)C(=O)N[C@@H](CC(=O)O)C(=O)N1CCC[C@H]1C(=O)O` [L-Ala-L-Glu-L-Asp-L-Pro tetrapeptide, L-Alanyl-L-Glutamyl-L-Aspartyl-L-Proline] (H-AEDP-OH), the “time of retention on the rotating pivot relative to control” value in assay [1] (48 hours after the trauma) is reported as “twice exceeded that in control”. The “number of trainable animals relative to controls (CRAA)” value in assay [1] (96 hours after trauma, intramuscular in 1, 12, 48 and 96 hours) is “twice as much as that in the controls”. The “indices of learning relative to control” value in assay [1] (in 30 days) is given as “higher than those in control”. For the same molecule, in the assay with rats (setting [4]), the “content of 5-oxyindoleacetic acid in the brain” value was “diminished” and the “content of serotonin in the brain” value is given as “increased”. In the assay on rats (intact animals), the “levels of serotonin and its metabolite” value is on record as “did not induce any changes”. Besides, the “Total period of stay in the dark chamber in 24 hours” value in assay [2] was found to be 38.1 ± 4.4. Besides, in assay [2] (i.p. 60 min. before the training), the “Trained animals (%)” value was 25%. Also, the “increase in the explant area index (AI) in comparison with control” value with cerebral cortex explants (20 ng/ml) worked out at 40±7%. In addition, the “concentration stimulating cultivated cortical fragments” value with cerebral cortex explants (effective concentration) worked out at 20 ng/mL. In assay [3] (setting [5]), the “Number of mistakes (proof test)” value is 6.3 ± 1.1, the “Reviewed symbols (proof test)” value came out at 2519.6 ± 105.3 and the “α-index (EEG)” value is reported as 47.9 ± 3.1. Moreover, the “cases with improvement of subjective indices (memory, mental agility, headaches, emotional evenness, will activity, recovery after a night repose)” value in assay [3] (before vs after treatment, 1 μg intramuscularly daily for 10 days) is 71%.
